System: T lymphocytes
Assay: T-cell proliferation assay (tritiated thymidine uptake, ionomycin + PMA stimulation; also called IL-2 assay)
Type: cell-based, C57B1/6 mice
Conditions: for IC50: Mouse T cell cultures, pulsed with 3H-thymidine for 4 hours prior to harvesting at 48 hours
Method: Cells were pelleted by centrifugation at 1500 rpm for 8 minutes. Contaminating red cells were removed by treating the pellet with ammonium chloride lysing buffer (GIBCO) for 2 minutes at 4°C. Cold medium was added and cells were again centrifuged at 1500 rpm for 8 minutes. T lymphocytes were then isolated by separation of the cell suspension on nylon wool columns as follows: Nylon wool columns were prepared by packing approximately 4 grams of washed and dried nylon wool into 20 ml plastic syringes. The columns were sterilized by autoclaving at 250°F for 30 minutes. Nylon wool columns were wetted with warm (37°C) culture medium and rinsed with the same medium. Washed spleen cells resuspended in warm medium were slowly applied to the nylon wool. The columns were then incubated in an upright position at 37°C for 1 hour. Non-adherent […] were eluted from the columns with warm culture medium and the cell suspensions were spun as above.
The cell suspension was immediately distributed into 96 well flat-bottom microculture plates (Costar) at 200 µl/well. […] The proliferation of T lymphocytes was assessed by measurement of tritiated thymidine incorporation. After 44 hours of culturing, the cells were pulse-labelled with 2 µCi/well of tritiated thymidine (NEN, Cambridge, MA). After another 4 hours of incubation, cultures were harvested on glass fiber filters using a multiple sample harvester. Radioactivity of filter discs corresponding to individual wells as measured by standard liquid scintillation counting methods (Betacounter). Mean counts per minute of replicate wells were calculated and the results expressed as percent inhibition of tritiated thymidine uptake (profileration) as follows [drawing 11]
• 1. Mouse T cell cultures were pulsed with ³H-thymidine for 4 hours prior to harvesting at 48 hours. • 2.

Row | Structure (SMILES) | inhibition at 0.01 µg/mL (Mus musculus, T-lymphocyte, 48 h, read-out: percent inhibition of tritiated thymidine uptake (proliferation)) [%] | Inhibition of T-cell proliferation after addition of recombinant human IL-2 (50 units/ml of recombinant human IL-2 added at the initiation of culture) | IC50 (T-lymphocyte) [ng/mL] | IC50 (T-lymphocyte, same value in molar unit) [nM]
1 | C=CC[C@@H]1/C=C(\C)C[C@H](C)C[C@H](OC)[C@H]2O[C@@](O)(C(=O)C(=O)N3CCCC[C@H]3C(=O)O[C@H](/C(C)=C/[C@@H]3CC[C@@H](O)[C@H](OC)C3)[C@H](C)[C@@H](O)CC1=O)[C@H](C)C[C@@H]2OC [L-679,934, reference compound] | 99 |  |  | 
2 | CCC[C@@H]1/C=C(\C)C[C@H](C)C[C@H](OC)[C@H]2O[C@@](O)(C(=O)C(=O)N3CCCC[C@H]3C(=O)O[C@H](/C(C)=C/[C@@H]3CC[C@@H](O)[C@H](OC)C3)[C@H](C)[C@@H](O)CC1=O)[C@H](C)C[C@@H]2OC [fraction 510] |  | reversed | 0.82 | 1.02

— EP0485091A1, “Process for the production of analogues of immunomycin” (MERCK & CO. INC., priority 1990, dated 1992)
